Columns and labels:
antigen-specific IgG1 = test: Vaccination in mice with ovalbumin as an antigen, serum IgG1 ELISA; type: in vivo, Balb/c mice; conditions: triple adjuvant composition (10 μg polyphosphazene: 20 μg IDR-1002: 10 μg Poly(I:C)) with Ova 50 μg or 1 μg, intramuscular, after two immunizations (Week 8), FIGS. 2 and 5
Procedure: (§1) To assess the adjuvant activity of the cyclopolyphosphazene 37, four in vivo studies were conducted with intramuscular administration of an ovalbumin (Ova) vaccine in mice. In the first two studies, the Ova vaccine was either formulated with no adjuvant or with a triple adjuvant (TriAdj). The first two studies compared three different triple adjuvants, all comprising Poly(I:C), IDR-1002 peptide and a polyphosphazene: either PCEP, 37 or 11. The third and fourth studies compared four different triple adjuvants, all comprising Poly(I:C), IDR-1002 peptide and a polyphosphazene: either PCEP, compound 11, compound 37 or compound 39.
(§2) In all studies, mice were randomized to cages such that the various treatment groups were not together in the same cage. All groups received Ova antigen mixed with the adjuvant (or not) just prior to intramuscular administration. All the vaccines were formulated and injected in 50 μL (25 μ/leg). Mice were vaccinated at Day 0 and Day 28 (Week 4) with the same dose.
(§3) In all studies, serum was collected on days 0, 28 and 56 for antigen-specific IgG1 and IgG2a ELISAs. […] Plates were read with a Biorad iMark Microplate Reader™. Data were expressed as titres, which represent the dilution factor required to generate an absorbance reading three standard deviations above the average value of the negative control, e.g. serum from control mice receiving no vaccination. […]

[1] = system: SipD-antigen-specific IgG; test: Vaccination in chicken with SipD as an antigen, serum IgG ELISA; type: in vivo, Leghorn chicken; conditions: triple adjuvant composition (20 μg polyphosphazene: 40 μg IDR-1002: 20 μg Poly(I:C)) with 10 μg SipD, intramuscular, after two immunizations (Week 4), FIG. 1B
Procedure: To assess the adjuvant activity of cyclopolyphosphazene candidates, such as 37, 11 and 39, an in vivo study was conducted with intramuscular administration of a Salmonella typhimurium Cell invasion protein (SipD) vaccine in young chicken. Two-week-old Leghorn chicken were randomly divided into three single adjuvant groups, three triple adjuvant groups and one PBS-adjuvant control group (n=12/group). The single adjuvant groups contained 20 μg PCEP, 11 or 37 polyphosphazene. All triple adjuvants comprised Poly(I:C), IDR-1002 peptide and a polyphosphazene: either PCEP, 37 or 11.
All vaccines were formulated prior to administration and injected in 200 μL intramuscularly in the tail area. Chicken were vaccinated at Day 0 and Day 14 (Week 2) with the same dose. […]
Serum was collected on days 0, 14 and 28 for SipD-antigen-specific IgG ELISAs. […] Plates were read with a Molecular Devices SpectraMax Plus 384 Reader™. Data were expressed as titres, which represent the dilution factor required to generate an absorbance reading two standard deviations above the average value of the negative control, e.g. serum from control chicken receiving no vaccination.

antigen-specific IgG2a = test: Vaccination in mice with ovalbumin as an antigen, serum IgG2a ELISA; type: in vivo, Balb/c mice; conditions: triple adjuvant composition (10 μg polyphosphazene: 20 μg IDR-1002: 10 μg Poly(I:C)) with Ova 50 μg or 1 μg, intramuscular, after two immunizations (Week 8), FIGS. 3 and 5
Procedure: as §1, §2, §3

CCCCCCCCCCCC(=O)NCCCCCCNC(=O)C(CCCCN)NC(=O)CCc1ccc(OP2(Oc3ccc(CCC(=O)NC(CCCCN)C(=O)NCCCCCCNC(=O)CCCCCCCCCCC)cc3)=NP(Oc3ccc(CCC(=O)NC(CCCCN)C(=O)NCCCCCCNC(=O)CCCCCCCCCCC)cc3)(Oc3ccc(CCC(=O)NC(CCCCN)C(=O)NCCCCCCNC(=O)CCCCCCCCCCC)cc3)=NP(Oc3ccc(CCC(=O)NC(CCCCN)C(=O)NCCCCCCNC(=O)CCCCCCCCCCC)cc3)(Oc3ccc(CCC(=O)NC(CCCCN)C(=O)NCCCCCCNC(=O)CCCCCCCCCCC)cc3)=N2)cc1 (stereo not drawn) [Compound 37, N,N′,N″,N′″,N″″,N′″″-(((2,2′,2″,22′″,2″″,2′″″-((3,3′,3″,3′″,3″″,3′″″-(((1,3,5,2l5,4l5,6l5-triazatriphosphinine-2,2,4,4,6,6-hexayl)hexakis(oxy))hexakis(benzene-4,1-diyl))hexakis(propanoyl))hexakis(azanediyl))hexakis(6-aminohexanoyl))hexakis(azanediyl))hexakis(hexane-6,1-diyl))hexadodecanamide]
significantly greater response: response in IgG1 relative to a vaccine without adjuvant (antigen-specific IgG1) | antigen-specific IgG titres relative to a vaccine without adjuvant [1] | response in IgG2a relative to a vaccine without adjuvant (antigen-specific IgG2a)

From patent US20240199663A1, “Cyclopolyphosphazenes, Related Methods of Preparation and Methods of Use” (University of Saskatchewan, priority 2021, published 2024)
